Test results published in EP4537820A1, “COMPOUND AND COMBINATIONS COMPRISING SAID COMPOUND TO IMPROVE IMMUNE RESPONSE” (Institut Gustave-Roussy, priority 2023, dated 2025).

Columns and labels:
[1] = tested on: OT-1 CD8+ T cells; test: Co-culture of OT-1 cells with treated MCA205-Glob-SL8-intron cells, T cell activation by flow cytometry; type: cell-based, mouse
Procedure: MCA205-Glob-SL8-intron were plated at 1×10^5 cells in 12-well plates and incubated overnight. The next day, cells were treated with different concentrations of drugs for 24 hours. After treatment, cells were harvested with trypsin, washed twice with OT-1 Media (RPMI-1640, 10% FBS, 2mM L-glutamine, 50µM of 2-mercaptoéthanol, 100 IU/mL of Penicillin G, […]), and each condition was counted with a KOVA slide and Trypan-blue. For each tested condition 2×10^5 of treatedcells were plated in a 96-wells plate. The same day, lymph nodes from an OT1 mouse (C57B1/6J TCR-transgenic CD8^+ T cells specific for Kb -OVA257-264, obtained from Charles River #642OT1) were harvested. Lymph nodes were dissociated and filtered through a 40 µm filter and red blood cells were lysed with ACK buffer. 8×10^5 OT-1 cells were added to the MCA205-Glob-SL8-intron cells (E:T ratio of 4:1) and the plate was incubated overnight at 37°C. The next day, translocation to the golgi was blocked with brefeldin A (#420601, Biolegend) for 3h before cells were stained with Zombie Aqua (#423102, Biolegend) and antibodies described in Table 2, to measure T cell activation. Samples were acquired on a Cytek Aurora (Cytek Biosciences) spectral flow cytometer and data was analysed with FlowJo (V10) software (TreeStar, Inc.). Table 2: Panel of antibodies for the study of OT-1 CD8+ T-cells activation by MCA205-Glob-SL8-intron.
In their experiments, OT-1 cells were co-incubated with MCA205 cells expressing the globin-SL8-intron construct. To assess the production of antigenic peptide substrates, they measured OT-1 cell proliferation using FACS analysis. They analyzed the expression levels of early activation markers, CD69 and CD25, which are critical for the proliferation of activated T cells. For that purpose, MCA205 cells with the globin-SL8-intron construct were exposed to varying concentrations of compound 58 for 24 hours, followed by co-incubation with OT-1 cells.
Furthermore, inventors sought to characterize the activated OT-1 cell subset induced by this treatment. To do so, they examined the expression of CD44 and CD62L (L-selectin) markers, which delineate two major subsets of OT-1 CD8+ T cells following co-culture with MCA cells treated with compound 58: effector/memory (CD44^high/CD62L^low) and central memory (CD44^high/CD62L^high) CD8+ T cell subsets.
Inventors then evaluated the effector function of OT-1 cells post-co-culture with MCA cells treated with compound 58 by examining the expression of perforin.

[2] = target: REGγ (Homo sapiens, UniProt P61289); test: Thermal Shift Assay (nanoDSF) with REGγ; type: binding; details: REGγ 500nM, compound at 40X (20µM, 0,4% DMSO)
Procedure: Thermal shift assay was carried out with nano differential scanning fluorimetry (nanoDSF) using the Tycho NT.6 from Nanotemper and was performed at the I2BC platform (Gif-sur-Yvette). Samples were prepared in a final volume of 25µL in a 96-well plate prior to be loaded on the Tycho capillaries. Proteins were diluted in activity buffer (20mM Tris-HCl pH 7.4 and 20mM NaCl). After optimisation, REGγ concentration was set to 500nM and 20S concentration to 50nM. Compounds concentrations were determined as ratios to protein concentration and to stay below 0,5% of DMSO; accordingly, compounds with REGγ were tested at 40X (20µM, 0,4% DMSO) and at 100X (5µM, 0,1% DMSO) with 20S. A thermal ramp was applied from 20 to 95°C and fluorescence was followed at 350nm and 330 nm, measuring intrinsic fluorescence of the proteins from tryptophan and tyrosine residues. Binding was detected as a shift in the inflection temperature (Ti) compared to the DMSO control.
To assess the efficacy of molecule 58 in directly binding to REGγ, inventors conducted a thermal shift assay (TSA). TSA leverages the property of proteins to undergo unfolding at specific temperatures, and the interaction with a ligand can alter the thermal stability, leading to a shift in the unfolding temperature. In their study, inventors examined how the compound 58 interacted with REGγ and monitored the change in melting temperature (ΔTm).

[3] = MCA cells treated 24 hours, then co-culture with OT-1 cells

REGγ, sequence (P61289 whole entry): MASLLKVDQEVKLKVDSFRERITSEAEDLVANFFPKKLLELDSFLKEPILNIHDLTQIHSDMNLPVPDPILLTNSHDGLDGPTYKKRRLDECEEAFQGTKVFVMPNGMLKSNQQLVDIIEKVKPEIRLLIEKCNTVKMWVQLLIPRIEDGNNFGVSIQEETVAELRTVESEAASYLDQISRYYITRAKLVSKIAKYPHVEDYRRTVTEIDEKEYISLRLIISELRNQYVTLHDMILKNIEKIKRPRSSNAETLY

## Cc1ccc(N=Nc2ccc(C)cc2NC(=O)Nc2ccccc2F)cc1 [compound 58]
[1]; MCA205 cells treated 24 hours, then co-incubation with OT-1 cells, compared to untreated cells
  frequency of CD69+ CD25+ OT-1 T cells: increased frequency
[1]; [3]
  frequency of CD44^high/CD62L^low effector/memory cells: dose-dependent increase
  frequency of central memory CD44^high/CD62L^high cells: remained unchanged
  perforin expression of OT-1 cells: increased perforin expression
[2]
  change in melting temperature (ΔTm): substantial increase in ΔTm
